Measurements reported in article PMC8360000 (Clinical Pharmacology and Therapeutics, 2021).
Where “and” joins values, the source holds several entries; their conditions need not be identical. Equal values may be shown once.

How the values were obtained:
[1] = test system: P‐gp; test: IVIVE of Kp,uu,brain from in vitro ER using REF; design: species or system human; conditions: for Kp,uu,brain,pred(method 1) Mean ± SD / Kp,uu,brain,pred(method 1) Individual: predicted from in vitro ER and REF; for Kp,uu,brain,pred(method 1) Mean ± SD: four experiments; for Kp,uu,brain,pred(method 1) Individual: individual experiments 1-4
[2] = test system: P‐gp; test: IVIVE of intrinsic CL and Kp,uu,brain using REF and BMEC protein content; design: species or system human; conditions: for Kp,uu,brain,pred(method 2): 5C model
[3] = test system: P-gp; test: IVIVE of Kp,uu,brain from in vitro ER using REF; design: species or system human; conditions: human, brain (unbound, Kp,uu)
[4] = test system: P‐gp; conditions: humans, cyclosporine as inhibitor; cited from earlier work

CNC(=O)C(CCN1CCC(O)(c2ccc(Cl)cc2)CC1)(c1ccccc1)c1ccccc1 [N‐desmethyl loperamide]
P/O (predicted/observed Kp,uu,brain ratio) ([1]; method 1): 0.92
Kp,uu,brain,pred(method 1) Mean ± SD [1]: 0.043 ± 0.018
Kp,uu,brain,pred(method 1) Individual [1]: 0.058 and 0.035 and 0.056 and 0.021
Kp,uu,brain,pred(method 2) ([2]; mean ± standard deviation): 0.020 ± 0.014
IVIV Extrapolated CLi ([2]; mean ± standard deviation, scaled with BMEC protein content): 287 ± 88 mL/min
P/O (predicted/observed value) ([2]; method 2): 0.44

CCN(CC)CCNC(=O)c1cc(Cl)c(N)cc1OC [Metoclopramide, metoclopramide]
Kp uu [3]: 1.3
Kp,uu,brain,pred(method 1) Mean ± SD [1]: 0.74 ± 0.08
Kp,uu,brain,pred(method 1) Individual [1]: 0.74 and 0.76 and 0.63 and 0.81
Kp,uu,brain,pred(method 2) ([2]; mean ± standard deviation): 0.61 ± 0.10
K1 (cerebral uptake CL), impact of P‐gp inhibition [4]: not impacted
